# Tests used:
# [1] = Competitive 1:1 slurry experiments of the two forms; assay type: physicochemical; settings: 1:1 slurry of Form I and Form III, variety of solvents
# [2] = biological target: A2AR (Homo sapiens, UniProt P29274); settings: antagonist; has been reported (U.S. Ser. No. 15/875,106, PCT/US18/14352); cited from earlier work
# [3] = biological target: T1, A2BR (Homo sapiens, UniProt P29275); settings: antagonist; has been reported (U.S. Ser. No. 15/875,106, PCT/US18/14352); cited from earlier work
# T1 sequence (P29275 1-332): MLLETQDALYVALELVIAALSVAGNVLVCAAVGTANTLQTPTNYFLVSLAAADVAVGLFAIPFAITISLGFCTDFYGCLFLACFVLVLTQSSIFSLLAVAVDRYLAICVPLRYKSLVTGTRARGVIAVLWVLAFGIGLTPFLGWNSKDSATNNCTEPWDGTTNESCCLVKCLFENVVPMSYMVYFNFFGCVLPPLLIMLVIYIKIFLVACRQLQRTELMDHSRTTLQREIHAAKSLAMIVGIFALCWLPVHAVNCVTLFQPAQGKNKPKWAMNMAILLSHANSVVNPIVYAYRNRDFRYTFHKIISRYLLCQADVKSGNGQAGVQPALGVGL
# [4] = Solid-state stability of Form I under stress storage, analysis by HPLC and XRPD; assay type: physicochemical
# Protocol: XRPD analysis was carried out on a PANalytical X'pert pro, scanning the samples between 3 and […] 2θ. The material was gently ground to release any agglomerates and loaded onto a multi-well plate with Kapton or Mylar polymer film to support the sample. The multi-well plate was then placed into the diffractometer and analyzed using Cu K radiation (α1λ=1.54060 Å; α2=1.54443 Å; β=1.39225 Å; α1: α2 ratio=0.5) running in transmission mode (step size 0.0130° 2θ) using 40 kV/40 mA generator settings.
# • Instrument: Agilient 1100 • Column: Zorbax Eclipse Plus C18 150 mm×3.0 mm, 3.5 μm particle size • Column Temperature: 35° C. • Autosampler Temperature: Ambient • UV wavelength: 228 nm • Injection Volume: 3 μL • Flow Rate: 1 mL/min • Mobile Phase A: Water (0.1% formic acid in 95:5 water:ACN) • Mobile Phase B: ACN (0.1% formic acid) • Gradient program: […]
# Vials containing a quantity of Form I of Compound I were subjected to a temperature of 40° C. at 75% relative humidity (RH) for one week. […] Additionally, vials containing a quantity of the crystalline material were subjected to a temperature of 80° C. in a closed vial for one week.
# [5] = Dynamic vapor sorption (DVS) hygroscopicity; assay type: physicochemical
# Protocol: Approximately 10 mg of sample was placed into a mesh vapor sorption balance pan and loaded into a DVS-1, DVS Intrinsic or DVS Advantage dynamic vapor sorption balance by Surface Measurement Systems. The sample was subjected to a ramping profile from 40-90% relative humidity (RH) at 10% increments, maintaining the sample at each step until a stable weight had been achieved (dm/dt 0.004%, minimum step length 30 min, maximum step length 500 min) at 25° C. After completion of the sorption cycle, the sample was dried using the same procedure to 0% RH and then a second sorption cycle back to 40% RH. Two cycles were performed. The weight change during the sorption/desorption cycles were plotted, allowing for the hygroscopic nature of the sample to be determined. XRPD analysis was then carried out on any solid retained.
# A quantity of Compound I Form I was analyzed by dynamic vapor sorption (DVS). The sample was subjected to a ramping profile from 40-90% RH at 10% increments, maintaining the sample at each step until a stable weight had been achieved at 25° C. After completion of the sorption cycle, the sample was dried using the same procedure to 0% RH and then a second sorption cycle back to 40% RH. Two cycles were performed. The weight change during the sorption/desorption cycles were plotted, allowing for the hygroscopic nature of the sample to be determined.
# [6] = Qualitative dissolution of amorphous Compound I in solvents; assay type: physicochemical; settings: 40 mg sample
# Protocol: Amorphous Compound I was produced by dissolving Compound I in 1,4-dioxane and subsequent lyophilization. The amorphous solid form was confirmed by the lack of indicative peaks by XRPD. To the amorphous Compound I, solvent was added to the 12×40 mg samples to prepare slurries for thermal cycling. The material was readily soluble in many of the 12 solvents and therefore, several of the samples were thermally cycled as saturated solutions.
# Chain of A2AR (P29274 whole entry): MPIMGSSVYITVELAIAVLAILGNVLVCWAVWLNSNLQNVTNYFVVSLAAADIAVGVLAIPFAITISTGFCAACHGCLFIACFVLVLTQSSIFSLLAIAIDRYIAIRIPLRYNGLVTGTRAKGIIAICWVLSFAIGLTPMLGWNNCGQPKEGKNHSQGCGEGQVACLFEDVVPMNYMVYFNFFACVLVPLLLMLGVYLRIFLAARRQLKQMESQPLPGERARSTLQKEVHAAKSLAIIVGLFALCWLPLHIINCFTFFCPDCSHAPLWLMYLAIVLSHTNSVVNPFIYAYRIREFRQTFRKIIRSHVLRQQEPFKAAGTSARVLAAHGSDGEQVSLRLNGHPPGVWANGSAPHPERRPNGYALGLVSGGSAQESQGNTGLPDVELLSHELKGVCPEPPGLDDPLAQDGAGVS
smiles,measurement,setting,value
"Cc1c(C#N)cccc1-c1cc(-c2cn(Cc3cccc(C(C)(C)O)n3)nn2)nc(N)n1 [Form III, 3-[2-amino-6-(1-{[6-(2-hydroxypropan-2-yl)pyridin-2-yl]methyl}-1H-1,2,3-triazol-4-yl)pyrimidin-4-yl]-2-methylbenzonitrile]",form conversion in competitive slurry,[1],converted to Form I
"Cc1c(C#N)cccc1-c1cc(-c2cn(Cc3cccc(C(C)(C)O)n3)nn2)nc(N)n1 [Compound I, 3-[2-amino-6-(1-{[6-(2-hydroxypropan-2-yl)pyridin-2-yl]methyl}-1H-1,2,3-triazol-4-yl)pyrimidin-4-yl]-2-methylbenzonitrile]",potency on A2AR,[2],less than 10 nM
same,potency on A2BR,[3],less than 10 nM
"Cc1c(C#N)cccc1-c1cc(-c2cn(Cc3cccc(C(C)(C)O)n3)nn2)nc(N)n1 [Form I of Compound I, 3-[2-amino-6-(1-{[6-(2-hydroxypropan-2-yl)pyridin-2-yl]methyl}-1H-1,2,3-triazol-4-yl)pyrimidin-4-yl]-2-methylbenzonitrile]","stability (decomposition, morphology change) by HPLC and XRPD",[4]; 40° C. at 75% relative humidity (RH) for one week,stable with no decomposition or morphology change observed
same,"stability (decomposition, morphology change) by HPLC and XRPD",[4]; 80° C. in a closed vial for one week,stable with no decomposition or change in morphology observed
same,hygroscopic nature,"[5]; DVS, 25° C.",slightly hygroscopic
same,XRPD analysis of resultant solid after DVS,[5]; after two sorption/desorption cycles,no change in morphology observed
same,maximum absorption of water (DVS),"[5]; at 90% relative humidity, 25° C., 0-90% RH range, reversible",1.1%
same,hysteresis upon cycling (DVS),"[5]; two cycles, 0-90% RH",No hysteresis was observed
"Cc1c(C#N)cccc1-c1cc(-c2cn(Cc3cccc(C(C)(C)O)n3)nn2)nc(N)n1 [amorphous Compound I, 3-[2-amino-6-(1-{[6-(2-hydroxypropan-2-yl)pyridin-2-yl]methyl}-1H-1,2,3-triazol-4-yl)pyrimidin-4-yl]-2-methylbenzonitrile]",Slurry or Solution,"[6]; 1,4-Dioxane, 200 μL",Solution
same,Slurry or Solution,"[6]; 2-Ethoxyethanol, 200 μL",solution
same,Slurry or Solution,"[6]; 25% Acetone/75% water, 200 μL",Solution
same,Slurry or Solution,"[6]; 25% MeCN/75% water, 300 μL",Slurry
same,Slurry or Solution,"[6]; Isopropanol, 400 μL",Slurry
same,Slurry or Solution,"[6]; Isopropyl acetate, 200 μL",Solution
same,Slurry or Solution,"[6]; Methanol, 200 μL",Solution
same,Slurry or Solution,"[6]; THF, 200 μL",Solution
same,Slurry or Solution,"[6]; Toluene, 700 μL",Slurry
same,Slurry or Solution,"[6]; acetonitrile, 400 μL",Slurry
same,Slurry or Solution,"[6]; dichloromethane, 200 μL",Solution
same,Slurry or Solution,"[6]; water, 700 μL",slurry
